Measurements: PubChem BioAssay (NCI)
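Five compound concentrations were applied to cells in 96-well plates for 48 hours; endpoints were derived by simple linear interpolation of the resulting dose-response curve. GI50 is the concentration that inhibits growth by half. Definition used: TGI = concentration required for complete inhibition of growth.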

Experiments:
Assay in all cases: DTP human tumour cell line panel, 48 h
[1] = system: COLO 205 colon
[2] = system: HCT-116 colon
[3] = system: HCT-15 colon
[4] = system: IGROV1 ovarian
[5] = system: LOX IMVI melanoma
[6] = system: OVCAR-8 ovarian
[7] = system: SF-539 CNS
[8] = system: SN12C renal
[9] = system: SW-620 colon
[10] = system: HT29 colon

| SMILES | GI50 [1] [µM] | TGI [1] [µM] | GI50 [2] | TGI [2] | GI50 [3] | TGI [3] | GI50 [4] | TGI [4] | GI50 [5] | TGI [5] | GI50 [6] | TGI [6] | GI50 [7] [µM] | TGI [7] [µM] | GI50 [8] | TGI [8] | GI50 [9] | TGI [9] | TGI [10] | GI50 [10] |
| --- | --- | --- | --- | --- | --- | --- | --- | --- | --- | --- | --- | --- | --- | --- | --- | --- | --- | --- | --- | --- |
| C=C(CN1CCc2ccccc2C1)c1ccc(C(=O)Nc2ccccc2N)cc1 | 1.52 | 7.4 | 1.93 µM | > 23.2 µM | 0.94 µM | 5.11 µM | 1.54 µM | 17.6 µM | 0.316 µM | 1.2 µM | 1.09 µM | 13.8 µM | 1.3 | 4.28 | 0.978 µM | 5.32 µM | 1.87 µM | > 42.8 µM |  |  |
| C[C@H]1[C@H](C)CC[C@]2(C(=O)NCCNCCN)CC[C@]3(C)C(=CC[C@@H]4[C@@]5(C)CCC(=O)C(C)(C)[C@@H]5CC[C@]43C)[C@H]12 |  |  | 1.71 µM | 3.18 µM | 1.73 µM | 3.29 µM | 1.71 µM | 3.17 µM | 1.71 µM | 3.13 µM |  |  | 1.68 | 3.05 | 1.61 µM | 2.98 µM | 1.84 µM | 3.47 µM |  |  |
| COc1ccc(Nc2nc3ccccc3nc2-c2cccs2)cc1 |  | > 100 |  | > 100 µM |  | > 100 µM |  | > 100 µM |  | > 100 µM |  | > 100 µM |  | > 100 |  | > 100 µM |  | > 100 µM |  |  |
| CC1(c2ccccc2)CC(c2ccccc2)=NO1 (stereo not drawn) |  | > 100 |  | > 100 µM |  | > 100 µM |  | > 100 µM |  |  |  | > 100 µM |  | > 100 |  | > 100 µM |  | > 100 µM | > 100 µM |  |
| COc1ccc(/C=C2/CCc3cc4ccc(OC)cc4[o+]c32)c(O)c1 | 2.59 | 10.7 |  |  | 2.25 µM | 6.03 µM | 2.71 µM | 27.6 µM | 2.12 µM | 5.02 µM | 2.27 µM | 6.13 µM | 15.1 | 31.8 | 2.51 µM | 7.93 µM | 2.23 µM | 5.09 µM | 4.67 µM | 2.12 µM |
| CC(C)c1ccccc1NC(=O)/C(Cl)=C1/Sc2ccccc2NC1=O |  | 74.6 |  | > 100 µM |  | > 100 µM |  | > 100 µM |  | > 100 µM |  | > 100 µM |  | 57.7 |  | > 100 µM |  | > 100 µM |  |  |
| CCOC(=O)/C(=C/c1cccc(OC)c1)N(CC)CC |  | > 100 |  | > 100 µM |  | > 100 µM |  | > 100 µM |  | > 100 µM |  | > 100 µM |  | > 100 |  |  |  | > 100 µM | > 100 µM |  |
| O=C(NC12CC3CC(CC(C3)C1)C2)C(=O)c1c[nH]c2ccc(Cl)cc12 |  | > 100 |  | > 100 µM |  | > 100 µM |  | > 100 µM |  | 84.8 µM |  |  |  | > 100 |  | > 100 µM |  |  | > 100 µM |  |
| NC(N)=NS(=O)(=O)c1ccc(NC(=O)c2cccc3c(Nc4ccc(S(N)(=O)=O)cc4)c4ccccc4nc23)cc1 |  | > 100 |  |  |  | > 100 µM |  | > 100 µM |  | > 100 µM |  | > 100 µM |  | > 100 |  | > 100 µM |  | > 100 µM | > 100 µM |  |
| Cc1cc(Nc2nc(SCc3ccc(C(=O)Nc4ccc(F)cc4N)cc3)nn3cccc23)n[nH]1 |  |  | 0.494 µM | 20.4 µM | 0.424 µM | > 100 µM | 0.558 µM | 62 µM | 0.665 µM | > 100 µM | 0.483 µM | 88 µM | 0.282 | 17.4 | 1.25 µM | > 100 µM | 0.426 µM | > 100 µM | 10.1 µM | 0.322 µM |
| O=c1c(Cl)c(Cl)cnn1CCc1ccncc1 |  |  |  | 30.7 µM |  | 31.3 µM |  | 33.8 µM |  | 33.7 µM |  | 43.1 µM |  | 43.4 |  | 33.6 µM |  | 41.2 µM | 31.6 µM |  |
| CCCCCCCCCCCCCCCCCCNC(=O)[C@H]1CSC(c2cccs2)N1 (stereo partly drawn) | > 50 | > 50 | 0.945 µM | 1.8 µM | 2.08 µM | > 50 µM |  |  | 0.834 µM | 2.02 µM | 1.31 µM | 3.34 µM | 1.71 | 7.85 | 0.885 µM | 1.76 µM | 0.881 µM | 1.91 µM | 4.2 µM | 1.46 µM |
| OC(CN1CC1)C(O)CN1CC1 (stereo not drawn) |  |  | > 50 µg/mL | > 50 µg/mL | > 50 µg/mL | > 50 µg/mL | > 50 µg/mL | > 50 µg/mL | > 50 µg/mL | > 50 µg/mL | > 50 µg/mL | > 50 µg/mL |  |  | > 50 µg/mL | > 50 µg/mL | > 50 µg/mL | > 50 µg/mL | > 50 µg/mL | > 50 µg/mL |
| CNC(SC)=C1C(=O)OC(C)(C)OC1=O |  | > 100 |  | > 100 µM |  | 40.9 µM |  | > 100 µM |  | > 100 µM |  | > 100 µM |  |  |  | > 100 µM |  | 38.5 µM | > 100 µM |  |
| O=c1c2c3c(sc2n2c(-c4cc(-c5ccccc5)nn4-c4ccccc4)nnc2n1Cc1ccccc1)CCCC3 | > 100 | > 100 |  |  | > 100 µM | > 100 µM |  |  | > 100 µM | > 100 µM |  |  | > 100 | > 100 | > 100 µM | > 100 µM |  |  |  |  |
| C=CCOC(=O)CC[N+]1=CCC(c2ccccc2)(c2ccccc2)O1 |  | > 100 |  | > 100 µM |  | > 100 µM |  | > 100 µM |  |  |  | > 100 µM |  | > 100 |  | > 100 µM |  | > 100 µM | > 100 µM |  |
| COC(=O)/C(C#N)=C1\CCC(C(=O)OC)N1C (stereo not drawn) |  | > 100 |  | > 100 µM |  | > 100 µM |  | > 100 µM |  |  |  | > 100 µM |  | > 100 |  | > 100 µM |  |  |  |  |
| CC(=O)OCC1OC(n2cc([N+](=O)[O-])c(=O)[nH]c2=O)C(OC(C)=O)C(OC(C)=O)C1OC(C)=O (stereo not drawn) |  | > 100 |  | > 100 µM |  | > 100 µM |  | > 100 µM |  | > 100 µM |  | > 100 µM |  |  |  | > 100 µM |  | > 100 µM | > 100 µM |  |
